Test system: E. coli AG100A
Assay: EtBr efflux by real-time fluorometry
Conditions: 20 µM
Description: Control tubes with only cells and cells with and without 0.4% glucose were included. The fluorescence was measured in a Rotor-Gene 3000 and the data was acquired every 30 s for 30 min at 37 °C. The efflux activity was quantified by comparing the fluorescence data obtained under conditions that promote efflux (presence of glucose and absence of efflux inhibitor) with the data from the control in which the bacteria are under conditions of no efflux (presence of an inhibitor and no energy source).

For `CN(C)CCCN1c2ccccc2Sc2ccc(Cl)cc21` [CPZ, chlorpromazine], the “EtBr fluorescence (Channel Cycling A.530/585hp)” value (“EtBr fluorescence” for short) (cycle 20, + glucose) was 3.821, the “EtBr fluorescence” value (cycle 20, without glucose) was 5.072 and the “EtBr fluorescence” value (cycle 21, + glucose) was 3.796. For the same compound, the “EtBr fluorescence” value (cycle 21, without glucose) was 5.224, the “EtBr fluorescence” value (cycle 22, + glucose) was 3.843 and the “EtBr fluorescence” value (cycle 22, without glucose) was 5.19. The “EtBr fluorescence” value (cycle 23, + glucose) was 3.825, the “EtBr fluorescence” value (cycle 23, without glucose) was 5.293 and the “EtBr fluorescence” value (cycle 24, + glucose) was 3.796. For the same compound, the “EtBr fluorescence” value (cycle 24, without glucose) was 5.381, the “EtBr fluorescence” value (cycle 25, + glucose) was 3.807 and the “EtBr fluorescence” value (cycle 25, without glucose) was 5.403. The “EtBr fluorescence” value (cycle 26, + glucose) was 3.836, the “EtBr fluorescence” value (cycle 26, without glucose) was 5.546 and the “EtBr fluorescence” value (cycle 27, + glucose) was 3.8908. The “EtBr fluorescence” value (cycle 27, without glucose) was 5.462, the “EtBr fluorescence” value (cycle 28, + glucose) was 3.846 and the “EtBr fluorescence” value (cycle 28, without glucose) was 5.551. The “EtBr fluorescence” value (cycle 29, + glucose) was 3.901, the “EtBr fluorescence” value (cycle 29, without glucose) was 5.7035 and the “EtBr fluorescence” value (cycle 30, + glucose) was 3.8738. For the same compound, the “EtBr fluorescence” value (cycle 30, without glucose) was 5.804, the “EtBr fluorescence” value (cycle 31, + glucose) was 3.964 and the “EtBr fluorescence” value (cycle 31, without glucose) was 5.758. The “EtBr fluorescence” value (cycle 32, + glucose) was 3.895, the “EtBr fluorescence” value (cycle 32, without glucose) was 5.843 and the “EtBr fluorescence” value (cycle 33, + glucose) was 3.921. For the same compound, the “EtBr fluorescence” value (cycle 33, without glucose) was 5.872, the “EtBr fluorescence” value (cycle 34, + glucose) was 3.877 and the “EtBr fluorescence” value (cycle 34, without glucose) was 5.974. The “EtBr fluorescence” value (cycle 35, + glucose) was 3.838, the “EtBr fluorescence” value (cycle 35, without glucose) was 6.003 and the “EtBr fluorescence” value (cycle 36, + glucose) was 3.873. For the same compound, the “EtBr fluorescence” value (cycle 36, without glucose) was 6.052, the “EtBr fluorescence” value (cycle 37, + glucose) was 3.865 and the “EtBr fluorescence” value (cycle 37, without glucose) was 6.051. The “EtBr fluorescence” value (cycle 38, + glucose) was 3.927, the “EtBr fluorescence” value (cycle 38, without glucose) was 6.151 and the “EtBr fluorescence” value (cycle 39, + glucose) was 3.914. The “EtBr fluorescence” value (cycle 39, without glucose) was 6.208, the “EtBr fluorescence” value (cycle 40, + glucose) was 4.038 and the “EtBr fluorescence” value (cycle 40, without glucose) was 6.311. For the same compound, the “EtBr fluorescence” value (cycle 41, + glucose) was 3.929, the “EtBr fluorescence” value (cycle 41, without glucose) was 6.369 and the “EtBr fluorescence” value (cycle 42, + glucose) was 3.925. The “EtBr fluorescence” value (cycle 42, without glucose) was 6.396, the “EtBr fluorescence” value (cycle 43, + glucose) was 3.906 and the “EtBr fluorescence” value (cycle 43, without glucose) was 6.421. The “EtBr fluorescence” value (cycle 44, + glucose) was 3.836, the “EtBr fluorescence” value (cycle 44, without glucose) was 6.524 and the “EtBr fluorescence” value (cycle 45, without glucose) was 6.6507. The “EtBr fluorescence” value (cycle 46, without glucose) was 6.69, the “EtBr fluorescence” value (cycle 47, without glucose) was 6.633 and the “EtBr fluorescence” value (cycle 48, without glucose) was 6.748. For the same compound, the “EtBr fluorescence” value (cycle 49, without glucose) was 6.869, the “EtBr fluorescence” value (cycle 50, without glucose) was 6.908 and the “EtBr fluorescence” value (cycle 51, without glucose) was 6.927. For the same compound, the “EtBr fluorescence” value (cycle 52, without glucose) was 6.871, the “EtBr fluorescence” value (cycle 53, without glucose) was 6.976 and the “EtBr fluorescence” value (cycle 54, without glucose) was 6.9692. The “EtBr fluorescence” value (cycle 55, without glucose) was 7.074, the “EtBr fluorescence” value (cycle 56, without glucose) was 7.021 and the “EtBr fluorescence” value (cycle 57, without glucose) was 7.172. For the same compound, the “EtBr fluorescence” value (cycle 58, without glucose) was 7.396, the “EtBr fluorescence” value (cycle 59, without glucose) was 7.291 and the “EtBr fluorescence” value (cycle 60, without glucose) was 7.378. For the same compound, the “EtBr fluorescence” value (cycle 61, without glucose) was 7.37.

— paper PMC5433425 (PeerJ, 2017)
